# Test results: patent US8822517B2, “Arylosulfonamides for the treatment of CNS diseases” (Adamed SP. Z O.O., priority 2010, dated 2014)
# Marks after values point to notes of the source that are not given here.
# Experiments:
# [1] = biological target: serotoninergic 5-HT2C receptor (Homo sapiens, UniProt P28335); assay: Cellular functional assay, serotoninergic 5-HT2C receptor (agonism/antagonism); assay type: cell-based; settings: agonist effect, percent of control specific agonist response; 1×10^−6M
# Description: The compounds were tested at the concentration of 1×10^−6M.
# In the Tables ag refers to agonism, and antag to antagonism).
# [2] = system: Wistar rats; assay: Apomorphine-induced stereotyped behaviour in rats
# Source text: (§1) Drug-naive male Wistar rats (Charles River, Sulzfeld, Germany) weighing 250-400 g were used in all experiments. Rats were housed two per standard plastic cage and kept in a room with constant environmental conditions (21-22′C, relative humidity 60%, a 12:12 light-dark cycle with lights on at 7:00 a.m.). Animals were supplied by the breeder two weeks before the onset of behavioral procedures. During this time, the subjects were weighed and handled several times. Tap water and standard lab chow (Labofeed H, WPIK, Kcynia, Poland) was available ad libitum.
# (§2) An injection volume of 10 ml/kg (mice) or 2 ml/kg (rats) was used throughout and all compounds were administered intraperitoneally (i.p.), except d-amphetamine that was given subcutaneously (s.c.).
# All tests were carried out in a sound-attenuated experimental room between 9:00 a.m. and 3:00 p.m. Within 24 h prior to testing, rats were habituated to glass observation so cages (25×25×40 cm, W×H×L) with wood chip bedding on the floor for 20 min. […] Rats were injected with apomorphine (0.6 mg/kg) and placed in the observation cages. […] Twenty minutes later, the time spent licking/biting and sniffing downward was recorded by a trained observer for 5 minutes (300 s). […]
# The duration of stereotyped sniffing and licking/biting was analyzed with the aid of the Kruskal-Wallis analysis of variance (ANOVA). […]
# [3] = system: Wistar rats; assay: Forced swimming test (Porsolt's test) in rats; assay type: in vivo
# Source text: as §1, §2
# The animals were individually subjected to two experimental trials during which they were forced to swim in a cylinder (40 cm high, 18 cm in diameter) filled with warm water (25° C.) to a height of 15 cm. A video camera was mounted 50 cm above the cylinder. The first (habituation) and second (test) trial lasted 15 and 5 minutes, respectively. There was a 24-h interval between the trials. The total duration of immobility was measured during the second trial by a trained observer located in a separate room.
# Weights and time of immobility were analyzed with the aid of a one-way analysis of variance (ANOVA). […]
# [4] = system: C57BL/6J mice; assay: Tail suspension test in C57BL/6J mice; assay type: in vivo
# [5] = system: Wistar rats; assay: Passive avoidance procedure in rats; settings: passive-avoidance (model of memory disturbance)
# Source text: as §1
# Potentially impairing effects of test substance on learning and memory function in rats were evaluated using a step-through passive avoidance (PA) test. […]
# In the training session (acquisition), animals were placed in the lighted compartment and allowed to explore it freely for 10 s. The sliding door was then opened, and the step-through latency for a rat to enter the dark compartment was measured. […]
# The test (expression) session was performed 24 h after the training session. […] A step-through latency for animals to enter the dark compartment was measured with a cut-off of 300 s.
# Weights and step-trough latencies were analyzed with the aid of a one-way analysis of variance (ANOVA). […]
# [6] = system: mice; assay: MK-801-induced locomotor hyperactivity in mice
# Description: (§3) All the experiments were performed by two observers unaware of the treatment applied between 9:00 and 14:00 on separate groups of animals. All animals were used only once and were killed immediately after the experiment.
# The locomotor activity was recorded with an Opto M3 multi-channel activity monitor (MultiDevice Software v. 1.3, Columbus Instruments). The mice were individually placed in plastic cages (22×12×13 cm) for 30 minutes habituation period, and then the crossings of each channel (ambulation) were counted during 1 h with data recording every 5 minutes. The cages were cleaned up with 70% ethanol after each mouse.
# The locomotor activity was recorded according to method described above.
# as §2
# All the data are expressed as the mean±SEM. The statistical significance of effects was evaluated using separate one-way analysis of variance (ANOVA) with comparison between individual groups by Dunnett's test (when only one drug was given) or by the Tukey's test when two drugs were used; p<0.05, p<0.01 and p<0.001 were considered statistically significant.
# [7] = system: Wistar rats; assay: Elevated plus maze test in rats
# Description: as §3
# Floor of the plus-maze was made of infrared transparent material what means that there are no visible sensors. The plus-maze was placed in a darkened room, and the center of the apparatus was illuminated with a 25 W electric bulb hanging 100 cm above. Plus-maze apparatus was connected to PC software by control chassis. Each rat was gently placed in the center of the plus-maze, facing one of the closed arms, immediately after a 5-min adaptation period in a plastic black box (60×60×35 cm). During a 5-minutes test period, automated Motor Monitor System recorded the number of entries into the closed and open arms, the time spent in and the distance (cm) covered by a rat in either type of the arms. After each trial the maze was wiped clean. All compounds were administered to 5-8 rats per treatment group.
# [8] = system: Wistar rats; assay: Amphetamine-induced PPI deficits in rats
# Source text: as §1, §2
# The PPI apparatus consisted of eight startle chambers (SR-LAB, San Diego Instruments, San Diego, Calif., USA). […] Startle responses, reflecting the motion of animals in the cylinder so following the acoustic stimulus, were detected by a piezoelectric transducer mounted below the frame. […]
# This interval was randomized by the SR-LAB software. Startle responses were measured for 100 ms after the onset of the last trial stimulus. […]
# Startle responses (in manufacturer's arbitrary units), and magnitudes of PPI (%) were analyzed with the aid of a one-way analysis of variance (ANOVA). […]
# [9] = system: Wistar rats; assay: Conditioned avoidance response (CAR) in rats
# Description: as §2
# Rats trained to avoid the foot shock were placed in the experimental chambers for a 3 min. habituation period followed by 50 CAR trials presented on a 15-s variable interval (VI) schedule. Each trial consisted of a 10 s warning tone and stimulus light (conditioned stimulus) followed by 10 s electric shock (0.5 mA). If during the initial 10 s of the trial an animal crossed through the sliding door, the tone and light were terminated, no shock was applied, and the response was considered as “an avoidance response”. If the animal crossed through the sliding door after a foot shock was initiated, the response was considered as an escape response. […] If a response was made during an intertrial interval, it was punished with 0.5 s shock (0.5 mA). […] On test days, a tested drug was administered i.p. 60 minutes before the start of the test session. Each drug was tested at 3-4 different doses in the same group of eight animals. A 7-day wash-out period was introduced between the subsequent tests. […]
# Avoidances, escapes, and “none” responses were analyzed with the aid of a one-way analysis of variance (ANOVA). […]
# [10] = system: Wistar rats; assay: MK-801-induced stereotyped behaviour in rats; settings: MK-801-induced stereotyped behaviour (glutamate-related psychosis model)
# Source text: as §1, §2
# All tests were carried out in a sound-attenuated experimental room between 9:00 a.m. and 3:00 p.m. Within 24 h prior to testing, rats were habituated to glass observation cages (25×25×40 cm, W×H×L) with wood chip bedding on the floor for 20 min. […] Views of other rats in the experiment were prohibited. Fifteen minutes later, the time spent circling/head waving was recorded by a trained observer for 5 min. […] Rats were pre-injected with a test drug 60 min. before the start of the observation period.
# The duration of stereotyped circling was analyzed with the aid of the Kruskal-Wallis analysis of variance (ANOVA). […]
# [11] = system: Wistar rats; assay: 2,5-Dimethoxy-4-iodoamphetamine (DOI)-induced head twitches in rats
# Source text: as §1, §2
# All tests were carried out in a sound-attenuated experimental room between 9:00 a.m. and 3:00 p.m. as described above for spontaneous head twitches. […] Rats were pre-injected i.p. with a test drug 60 min. before the start of the test session. […] Five minutes later, head twitches were counted for 5 minutes. (300 s) by a trained observer.
# Total numbers of head twitches (n/5 min.) were analyzed by means of the Kruskal-Wallis analysis of variance (ANOVA). The Mann-Whitney U test was used for individual post hoc comparisons.
# [12] = system: mice; assay: d-Amphetamine-induced locomotor hyperactivity in mice; settings: for MED*: minimum effective dose, d-amphetamine-induced locomotor hyperactivity, i.p.
# Description: as §3
# The locomotor activity was recorded with an Opto M3 multi-channel activity monitor (MultiDevice Software v. 1.3, Columbus Instruments). The mice were individually placed in plastic cages (22×12×13 cm) for 30 minutes habituation period, and then the crossings of each channel (ambulation) were counted during 1 h with data recording every 5 minutes. The cages were cleaned up with 70% ethanol after each mouse. Drugs were administered to 10 mice per treatment group. d-Amphetamine was administered 30 minutes before the test.
# as §2
# All the data are expressed as the mean±SEM. The statistical significance of effects was evaluated using separate one-way analysis of variance (ANOVA) with comparison between individual groups by Dunnett's test (when only one drug was given) or by the Tukey's test when two drugs were used; p<0.05, p<0.01 and p<0.001 were considered statistically significant. ED50 values were calculated using Graph Pad Prism 5 Software.
# [13] = system: Wistar rats; assay: Conflict drinking test (Vogel test) in rats; assay type: in vivo
# Source text: Recording data started immediately after the first lick and every 20 licks rats were punished with an electric shock (0.5 mA, lasting 1 s). […] If a rat was drinking when an impulse was released, it received a shock.
# [14] = system: Swiss mice; assay: Four-plate test in Swiss mice; assay type: in vivo
# [15] = biological target: T1, histaminergic receptor (Cavia porcellus, UniProt P31389); assay: Guinea-pig ileum test, antagonism of histamine contraction; settings: antagonistic activity towards histaminergic receptor, agonist histamine, read-out: H ant** (pKb) (converted)
# T1 construct: Terminal ileum was dissected and placed into a Krebs solution; from tissue; host or cells: guinea-pig terminal ileum segments (organ bath)
# Description: Ileum was prepared from male guinea-pigs with 300-350 g of body weight, fasted for 24 h before experiment with free access to drinking water. Terminal ileum was dissected and placed into a Krebs solution (NaCl 120 mM, KCl 5.6 mM, MgCl2 2.2 mM, CaCl2 2.4 mM, NaHCO3 19 mM, glucose 10 mM) and 2 cm-long fragments were cut. Each segment of the gut was placed in 30 ml chamber filled with the Krebs solution at 37 C, pH 7.4, with constant oxygenation (O2/CO2, 19:1), fixed by the lower end to a glass rod and by the upper end to the force-displacement transducer FDT 10-A (Biopac Systems, COMMAT, Ltd., Turkey). The preparation was allowed to stabilize in organ baths for 60 min under a resting tension of 0.5 g, washing every 15 min with fresh Krebs solution. All responses were recorded using software Biopac Systems Inc MP-35 Data Acquisition, Turkey.
# In next step, stock solutions were diluted 10× in water.
# The equilibration period a cumulative concentration-response curve was constructed in so each tissue for respective agonist—carbachol (3×10^−9−3×10^−6 M) or histamine (10^−8-10^−5 M) by the method of van Rossum (Ref. 24). Following the first agonist curve, tissues were incubated with one of the concentrations of tested compounds for 15 min and the next cumulative concentration curve to agonist was obtained. Only one concentration of the antagonist was tested in each piece of tissue. Experiments were repeated three to eight times.
# After the equilibration period a cumulative concentration-response curve was constructed in each tissue for histamine (10^−8-10^−5 M) by the method of van Rossum. Following the first histamine curve, tissues were incubated with one of the concentrations of tested compounds for 15 min and the next cumulative concentration curve to histamine was obtained. Only one concentration of the antagonist was tested in each piece of tissue. Experiments were repeated three to seven times.
# Concentration-response curves were analysed using GraphPad Prism 4.0 (GraphPad Software Inc., San Diego, Calif., USA). […]
# T1 sequence (P31389 whole entry): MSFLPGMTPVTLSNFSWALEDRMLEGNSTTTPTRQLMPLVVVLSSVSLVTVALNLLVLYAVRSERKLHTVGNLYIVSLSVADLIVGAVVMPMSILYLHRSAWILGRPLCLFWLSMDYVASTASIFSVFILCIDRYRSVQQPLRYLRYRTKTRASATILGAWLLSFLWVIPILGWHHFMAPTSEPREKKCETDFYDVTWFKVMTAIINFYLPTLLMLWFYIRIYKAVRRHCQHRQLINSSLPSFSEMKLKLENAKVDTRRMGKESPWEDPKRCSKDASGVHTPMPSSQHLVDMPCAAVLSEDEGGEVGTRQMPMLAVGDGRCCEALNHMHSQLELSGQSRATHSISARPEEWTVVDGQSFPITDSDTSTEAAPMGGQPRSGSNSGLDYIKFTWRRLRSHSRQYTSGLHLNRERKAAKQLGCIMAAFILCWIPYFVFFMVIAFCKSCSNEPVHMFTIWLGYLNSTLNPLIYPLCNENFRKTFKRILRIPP
# Chain of serotoninergic 5-HT2C receptor (P28335 33-458): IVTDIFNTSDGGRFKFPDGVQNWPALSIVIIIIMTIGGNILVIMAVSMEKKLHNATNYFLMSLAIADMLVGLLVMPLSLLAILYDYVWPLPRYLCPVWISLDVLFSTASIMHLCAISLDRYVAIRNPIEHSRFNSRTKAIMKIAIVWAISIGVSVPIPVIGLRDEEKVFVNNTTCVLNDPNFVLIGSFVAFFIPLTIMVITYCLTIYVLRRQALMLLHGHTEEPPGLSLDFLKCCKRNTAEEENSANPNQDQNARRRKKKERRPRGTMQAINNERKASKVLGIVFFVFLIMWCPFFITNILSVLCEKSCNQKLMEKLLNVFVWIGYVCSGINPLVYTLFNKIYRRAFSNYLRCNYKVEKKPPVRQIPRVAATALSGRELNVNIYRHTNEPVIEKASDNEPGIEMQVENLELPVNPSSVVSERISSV
structure (smiles),measurement,setting,value
"Cc1c(S(=O)(=O)NCCCCN2CCN(c3nsc4ccccc34)CC2)sc2ccc(F)cc12 [Compound 65, N-[4-[4-(1,2-Benzothiazol-3-yl)piperazin-1-yl]butyl]-5-fluoro-3-methylbenzothiophene-2-sulphonamide]",5-HT2C -ag [%],[1],0%
"Cc1cccc(S(=O)(=O)NCCCN2CCC(c3noc4cc(F)ccc34)CC2)c1 [Compound 22, N-[3-[4-(6-Fluoro-1,2-benzoxazol-3-yl)piperidin-1-yl]propyl]-3-methylbenzenesulphonamide]",activity in stereotyped behavior induced by apomorphine,[2],active
same,MED,[2]; apomorphine-induced stereotyped behaviour (dopamine-related psychosis model),10 mg/kg
same,MED,[3]; Porsolt forced swim test (potential antidepressant activity),0.3 mg/kg
same,activity in forced swim test (Porsolt) in rats,[3]; antidepressant model,active
same,activity in tail suspension test in mice,"[4]; mice, antidepressant model",active
same,MED,[4]; tail suspension test in C57BL/6J mice,0.156 mg/kg
same,MED,[5],>30 mg/kg
same,activity in MK-801 induced hyperlocomotion,[6],active
same,MED*,"[6]; minimum effective dose, MK-801-induced locomotor hyperactivity, i.p.",1.25 mg/kg
same,activity in elevated plus maze,[7]; anxiolytic model,active
same,MED [mg/kg],[7]; elevated plus-maze (potential anxiolytic activity),≤ 0.3 * mg/kg
same,activity in reversal of deficits in prepulse inhibition in rats,[8],active
same,MED,[8]; prepulse inhibition disruption caused by amphetamine administration,30 mg/kg
same,activity in active avoidance response,[9],active
same,MED,[9]; active-avoidance response (model of positive symptoms of schizophrenia),3 mg/kg
same,MED,[10],3 mg/kg
same,activity in stereotyped behavior induced by DOI,[11],active
same,MED [mg/kg],[11]; DOI-induced head twitches (serotonin-related psychosis model),≤ 1 * mg/kg
same,activity in d-amphetamine induced hyperlocomotion,[12],active
same,MED*,[12],2.5 mg/kg
same,MED,[13]; Vogel test (potential anxiolytic activity),3 mg/kg
same,activity in conflict drinking test (Vogel) in rats,[13]; anxiolytic model,active
same,MED,[14]; four-plate test in mice,0.312 mg/kg
same,activity in four plates test in mice,"[14]; mice, anxiolytic model",active
"Cc1cccc(S(=O)(=O)NCCCN2CCN(c3nsc4ccccc34)CC2)c1 [Compound 7, N-(3-(4-(1,2-Benzothiazol-3-yl)piperazin-1-yl)propyl)-3-methylbenzenesulphonamide]",MED*,[12],2 mg/kg
"Cc1cccc(S(=O)(=O)NCCCCN2CCN(c3nsc4ccccc34)CC2)c1 [Compound 3, N-(4-(4-(1,2-Benzothiazol-3-yl)piperazin-1-yl)butyl)-3-methylbenzenesulphonamide]",Kb,[15],148 nM
"O=S(=O)(NCCCCN1CCN(c2nsc3ccccc23)CC1)c1cccc2ccccc12 [Compound 1, N-(4-(4-(1,2-Benzothiazol-3-yl)piperazin-1-yl)butyl)naphthalene-1-sulphonamide]",Kb,[15],498 nM
"O=S(=O)(NCCCCN1CCN(c2nsc3ccccc23)CC1)c1ccc2ccccc2c1 [Compound 2, N-(4-(4-(1,2-Benzothiazol-3-yl)piperazin-1-yl)butyl)naphthalene-2-sulphonamide]",Kb,[15],457 nM
same,MED*,[12],5 mg/kg
"O=S(=O)(NCCCCN1CCC(c2noc3cc(F)ccc23)CC1)c1ccc2ccccc2c1 [Compound 18, N-[4-[4-(6-Fluoro-1,2-benzoxazol-3-yl)piperidin-1-yl]butyl]naphthalene-2-sulphonamide]",MED*,[12],2.5 mg/kg
"O=S(=O)(NCCCCN1CCN(c2nsc3ccccc23)CC1)c1cc2ccc(Cl)cc2s1 [Compound 241, N-[4-[4-(1,2-Benzothiazol-3-yl)piperazin-1-yl]butyl]-6-chlorobenzothiophene-2-sulphonamide]",5-HT2C -ag [%],[1],−4%
"O=S(=O)(NCCCCN1CCC(c2noc3cc(F)ccc23)CC1)c1ccc2cc(Cl)ccc2c1 [Compound 97, 6-Chloro-N-[4-[4-(6-fluoro-1,2-benzoxazol-3-yl)piperidin-1-yl]butyl]naphthalene-2-sulphonamide]",MED*,[12],2.5 mg/kg
